Converted amounts (≈) assume the structure as drawn. “And” between values parts separate entries of the source, which are not always exact repeats. Identical values can stand only once. Like-named read-outs stand apart in the source and are kept apart here.
Experiments:
HeLa cells = test: Activity on HeLa cells cloning efficiency in vitro; type: cell-based; details: for ID50 / IC50: several values = separate experiments; for ID50: 1440 min; for activity on HeLa cells cloning efficiency in vitro (in words): compared with daunorubicin; for activity at 0.1 µg/mL: dose 100 ng/ml
From the text: Activity on HeLa cells cloning efficiency in vitro. Treatment

P388 ascitic leukemia = test: Activity against P388 ascitic leukemia; type: in vivo, mice; details: for T/C (median survival time of treated mice/median survival time of controls) / Toxicity deaths: day 1 after tumor inoculation
Method: As regards the in vivo tests, preliminary experiments were carried out on P388 ascitic leukemia.
Activity against P388 ascitic leukemia. Treatment i.p. on day
1 after tumor inoculation.
^a Median survival time of treated mice/median survival time of […]

[1] = HeLa cloning efficiency, treatment for 24 hours
[2] = 2.9 mg/kg i.p., data of 3 experiments
[3] = Homo sapiens, HeLa, 24 h, HeLa cloning efficiency, treatment for 24 hours, read-out: ID50 (the source's name)
[4] = Homo sapiens, HeLa, 24 h, 24 hours, read-out: % of controls

For `COc1cccc2c1C(=O)c1c(O)c3c(c(O)c1C2=O)C[C@@](O)(C(C)=O)C[C@@H]3O[C@H]1C[C@H](N)[C@H](O)[C@H](C)O1` [Daunorubicin, reference compound], which ID50 (HeLa cells; [1]) is on record?
The ID50 was 8.3 ng/mL (≈ 0.0157 µM).

And the activity at 0.00625 µg/mL (HeLa cells; Homo sapiens, HeLa, 24 h, read-out: % of controls, dose 6.25 ng/ml, 24 hours, data of 3 experiments)?
The activity at 0.00625 µg/mL was 66%.

And the IC50 (HeLa cells; Homo sapiens, HeLa, 24 h, read-out: ID50, HeLa cloning efficiency, treatment for 24 hours)?
The IC50 was 0.009 µg/mL (≈ 0.0171 µM).

And the “% of controls” value (HeLa cells; dose 3.12 ng/ml, 24 hours, data of 3 experiments)?
Its value is 105% and 100% and 70%.

And the “% of controls” value (HeLa cells; dose 6.25 ng/ml, 24 hours, data of 3 experiments)?
The value was 69% and 57%.

What about the “T/C (median survival time of treated mice/median survival time of controls)” value (P388 ascitic leukemia; [2]) of the same molecule?
Its value is 170% and 172% and 180%.

What about the Toxicity deaths (P388 ascitic leukemia; [2]) of the same molecule?
The Toxicity deaths was 0/10 and 0/6.

And the “T/C (median survival time of treated mice/median survival time of controls)” value (P388 ascitic leukemia; 4.4 mg/kg i.p.)?
The value was 170% and 168% and 185%.

And the Toxicity deaths (P388 ascitic leukemia; 4.4 mg/kg i.p.)?
Its Toxicity deaths is 1/10 and 0/6 and 0/10.

And the “T/C (median survival time of treated mice/median survival time of controls)” value (P388 ascitic leukemia; 6.6 mg/kg i.p.)?
Its value is 155% and 168% and 190%.

What about the Toxicity deaths (P388 ascitic leukemia; 6.6 mg/kg i.p.) of the same molecule?
The Toxicity deaths was 6/10 and 5/5 and 4/10.

What does the source list for `C=C1[C@@H](NC(=O)C(F)(F)F)C[C@H](O[C@H]2C[C@](O)(C(C)=O)Cc3c(O)c4c(c(O)c32)C(=O)c2c(OC)cccc2C4=O)O[C@H]1C` [IV-A, 4'-deoxy-4'-C-methylene-N-trifluoroacetyl-daunorubicin]?
ID50 (HeLa cells; [1]): 1300 ng/mL (≈ 2.1 µM); IC50 (HeLa cells; [3]): 1.6 µg/mL (≈ 2.58 µM); activity at 0.8 µg/mL (HeLa cells; Homo sapiens, HeLa, 24 h, dose 800 ng/ml, 24 hours, read-out: % of controls): 115%; activity at 3.2 µg/mL (HeLa cells; Homo sapiens, HeLa, 24 h, dose 3200 ng/ml, 24 hours, read-out: % of controls): 7%; activity on HeLa cells cloning efficiency in vitro (in words) (HeLa cells): markedly less active than daunorubicin; % of controls (HeLa cells; dose 800 ng/ml, 24 hours): 116%; T/C (median survival time of treated mice/median survival time of controls) (P388 ascitic leukemia; 100 mg/kg i.p.): 110%; Toxicity deaths (P388 ascitic leukemia; 100 mg/kg i.p.): 0/5; T/C (median survival time of treated mice/median survival time of controls) (P388 ascitic leukemia; 200 mg/kg i.p.): 110%; Toxicity deaths (P388 ascitic leukemia; 200 mg/kg i.p.): 0/5; T/C (median survival time of treated mice/median survival time of controls) (P388 ascitic leukemia; 400 mg/kg i.p.): 130%; Toxicity deaths (P388 ascitic leukemia; 400 mg/kg i.p.): 0/3

What does the source list for `COc1cccc2c1C(=O)c1c(O)c3c(c(O)c1C2=O)CC(O)(C(C)=O)CC3OC1CC(N)C(C)C(C)O1` (stereo not drawn) [V-B, 4'-deoxy-4'-epi-C-methyl-daunorubicin]?
IC50 (HeLa cells; [3]): 0.0077 µg/mL (≈ 0.0147 µM); activity at 0.0062 µg/mL (HeLa cells; Homo sapiens, HeLa, 24 h, dose 6.2 ng/ml, 24 hours, read-out: % of controls): 54%; activity at 0.025 µg/mL (HeLa cells; Homo sapiens, HeLa, 24 h, dose 25 ng/ml, 24 hours, read-out: % of controls): 4%; activity at 0.1 µg/mL (HeLa cells; [4]): 0%; activity on HeLa cells cloning efficiency in vitro (in words) (HeLa cells): maintained a high cytotoxic activity; T/C (median survival time of treated mice/median survival time of controls) (P388 ascitic leukemia; 4.4 mg/kg i.p.): 130%; Toxicity deaths (P388 ascitic leukemia; 4.4 mg/kg i.p.): 0/10; T/C (median survival time of treated mice/median survival time of controls) (P388 ascitic leukemia; 6.6 mg/kg i.p.): 140%; Toxicity deaths (P388 ascitic leukemia; 6.6 mg/kg i.p.): 0/10; T/C (median survival time of treated mice/median survival time of controls) (P388 ascitic leukemia; 10.0 mg/kg i.p.): 140%; Toxicity deaths (P388 ascitic leukemia; 10.0 mg/kg i.p.): 0/9

`COc1cccc2c1C(=O)c1c(O)c3c(c(O)c1C2=O)C[C@@](O)(C(C)=O)C[C@@H]3O[C@H]1C[C@H](N)[C@@](O)(CN)[C@H](C)O1` [V-C, 4'-C-aminomethyl-daunorubicin] was tested. Which IC50 (HeLa cells; [3]) did it give?
Its IC50 is 1 µg/mL (≈ 1.8 µM).

What about the activity at 0.1 µg/mL (HeLa cells; [4]) of the same molecule?
Its activity at 0.1 µg/mL is 143%.

And the activity at 0.4 µg/mL (HeLa cells; Homo sapiens, HeLa, 24 h, dose 400 ng/ml, 24 hours, read-out: % of controls)?
Its activity at 0.4 µg/mL is 141%.

And the activity at 1.6 µg/mL (HeLa cells; Homo sapiens, HeLa, 24 h, dose 1600 ng/ml, 24 hours, read-out: % of controls)?
Its activity at 1.6 µg/mL is 3.8%.

What about the “activity on HeLa cells cloning efficiency in vitro (in words)” value (HeLa cells) of the same molecule?
The value was “markedly less active than daunorubicin”.

And the “T/C (median survival time of treated mice/median survival time of controls)” value (P388 ascitic leukemia; 50 mg/kg i.p.)?
The value was 181%.

What about the Toxicity deaths (P388 ascitic leukemia; 50 mg/kg i.p.) of the same molecule?
The Toxicity deaths was 0/6.

What about the “T/C (median survival time of treated mice/median survival time of controls)” value (P388 ascitic leukemia; 100 mg/kg i.p.) of the same molecule?
The value was 172%.

What about the Toxicity deaths (P388 ascitic leukemia; 100 mg/kg i.p.) of the same molecule?
Its Toxicity deaths is 0/5.

What about the “T/C (median survival time of treated mice/median survival time of controls)” value (P388 ascitic leukemia; 200 mg/kg i.p.) of the same molecule?
Its value is 204%.

What about the Toxicity deaths (P388 ascitic leukemia; 200 mg/kg i.p.) of the same molecule?
The Toxicity deaths was 0/4.

What about the “antitumor activity compared with daunorubicin (in words)” value (P388 ascitic leukemia; at a dose of 200 mg/kg) of the same molecule?
The value was “more active than daunorubicin”.
